Experimental data: ChEMBL document CHEMBL4007384, “Synthesis and optimization of furano[3,2-d]pyrimidines as selective spleen tyrosine kinase (Syk) inhibitors” (Bioorg Med Chem Lett, 2016)

Legend:
[1] = molecular target: AMP-activated protein kinase, AMPK; assay: Inhibition of AMPK (unknown origin) after 60 mins by TR-FRET assay; set-up: species or system Homo sapiens
[2] = molecular target: Aurora kinase B (Homo sapiens, UniProt Q96GD4); assay: Inhibition of AURKB (unknown origin) after 60 mins by TR-FRET assay
[3] = molecular target: Tyrosine-protein kinase BTK (Homo sapiens, UniProt Q06187); assay: Inhibition of BTK (unknown origin) after 60 mins by TR-FRET assay
Sequence of Tyrosine-protein kinase BTK (Q06187 whole entry): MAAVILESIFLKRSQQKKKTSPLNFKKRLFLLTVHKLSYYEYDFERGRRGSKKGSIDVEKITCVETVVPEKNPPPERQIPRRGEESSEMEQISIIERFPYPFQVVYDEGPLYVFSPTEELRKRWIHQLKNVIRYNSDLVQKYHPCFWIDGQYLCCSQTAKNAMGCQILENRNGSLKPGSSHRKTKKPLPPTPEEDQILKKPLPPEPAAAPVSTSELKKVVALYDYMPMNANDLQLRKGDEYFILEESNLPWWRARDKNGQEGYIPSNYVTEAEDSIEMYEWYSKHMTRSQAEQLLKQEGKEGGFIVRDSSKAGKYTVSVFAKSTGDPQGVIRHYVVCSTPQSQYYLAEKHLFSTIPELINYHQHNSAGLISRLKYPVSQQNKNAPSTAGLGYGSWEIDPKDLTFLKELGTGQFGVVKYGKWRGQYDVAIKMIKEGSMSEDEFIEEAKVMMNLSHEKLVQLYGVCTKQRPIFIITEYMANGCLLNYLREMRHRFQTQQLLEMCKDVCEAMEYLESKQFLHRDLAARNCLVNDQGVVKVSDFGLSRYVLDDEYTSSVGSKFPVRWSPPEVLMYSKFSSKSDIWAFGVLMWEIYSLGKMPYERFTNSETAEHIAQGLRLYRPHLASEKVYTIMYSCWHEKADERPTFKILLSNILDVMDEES

[4] = molecular target: Calcium/calmodulin-dependent protein kinase type II subunit alpha (Homo sapiens, UniProt Q9UQM7); assay: Inhibition of human CAMK2A (unknown origin) after 60 mins by TR-FRET assay
[5] = molecular target: Cyclin-dependent kinase 7 (Homo sapiens, UniProt P50613); assay: Inhibition of CDK7 (unknown origin) after 60 mins by TR-FRET assay
Sequence of Cyclin-dependent kinase 7 (P50613 whole entry, canonical isoform): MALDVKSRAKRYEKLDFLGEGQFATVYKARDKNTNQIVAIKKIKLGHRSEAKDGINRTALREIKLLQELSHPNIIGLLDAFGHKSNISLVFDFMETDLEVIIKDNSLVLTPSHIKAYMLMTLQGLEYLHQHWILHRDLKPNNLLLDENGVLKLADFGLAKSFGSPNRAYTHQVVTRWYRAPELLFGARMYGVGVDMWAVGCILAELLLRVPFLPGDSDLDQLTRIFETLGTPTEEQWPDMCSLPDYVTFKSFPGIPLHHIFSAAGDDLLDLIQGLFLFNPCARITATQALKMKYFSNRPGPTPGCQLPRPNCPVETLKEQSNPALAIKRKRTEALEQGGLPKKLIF

[6] = molecular target: Casein kinase I isoform alpha (Homo sapiens, UniProt P48729); assay: Inhibition of CK1alpha1 (unknown origin) after 60 mins by TR-FRET assay
Sequence of Casein kinase I isoform alpha (P48729 whole entry, canonical isoform): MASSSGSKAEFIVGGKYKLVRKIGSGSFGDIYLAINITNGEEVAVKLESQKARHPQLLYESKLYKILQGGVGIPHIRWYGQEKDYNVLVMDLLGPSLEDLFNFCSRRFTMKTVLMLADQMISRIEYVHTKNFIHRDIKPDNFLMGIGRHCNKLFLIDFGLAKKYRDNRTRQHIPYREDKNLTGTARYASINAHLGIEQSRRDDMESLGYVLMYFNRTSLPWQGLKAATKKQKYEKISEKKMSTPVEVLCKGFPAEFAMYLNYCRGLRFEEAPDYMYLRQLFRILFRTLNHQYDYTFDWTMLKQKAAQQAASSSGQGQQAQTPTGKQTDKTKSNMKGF

[7] = molecular target: Dual specificity protein kinase CLK2 (Homo sapiens, UniProt P49760); assay: Inhibition of CLK2 (unknown origin) after 60 mins by TR-FRET assay
Sequence of Dual specificity protein kinase CLK2 (P49760 whole entry): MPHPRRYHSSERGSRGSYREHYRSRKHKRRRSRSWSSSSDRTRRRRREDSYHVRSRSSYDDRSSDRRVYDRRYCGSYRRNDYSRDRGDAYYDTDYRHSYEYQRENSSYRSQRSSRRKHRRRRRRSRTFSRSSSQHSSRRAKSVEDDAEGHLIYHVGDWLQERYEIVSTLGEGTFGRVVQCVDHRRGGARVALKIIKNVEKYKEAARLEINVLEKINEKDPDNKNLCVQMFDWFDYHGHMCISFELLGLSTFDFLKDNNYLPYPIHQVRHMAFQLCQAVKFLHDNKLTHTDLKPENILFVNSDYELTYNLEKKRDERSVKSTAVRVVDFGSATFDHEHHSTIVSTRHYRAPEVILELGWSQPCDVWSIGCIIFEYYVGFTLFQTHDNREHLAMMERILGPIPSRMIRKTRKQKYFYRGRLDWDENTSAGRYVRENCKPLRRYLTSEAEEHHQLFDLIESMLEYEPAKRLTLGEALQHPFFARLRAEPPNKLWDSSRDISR

[8] = molecular target: Hepatocyte growth factor receptor (Homo sapiens, UniProt P08581); assay: Inhibition of c-MET (unknown origin) after 60 mins by TR-FRET assay
[9] = molecular target: Macrophage colony-stimulating factor 1 receptor (Homo sapiens, UniProt P07333); assay: Inhibition of CSF1R (unknown origin) after 60 mins by TR-FRET assay
Sequence of Macrophage colony-stimulating factor 1 receptor (P07333 whole entry): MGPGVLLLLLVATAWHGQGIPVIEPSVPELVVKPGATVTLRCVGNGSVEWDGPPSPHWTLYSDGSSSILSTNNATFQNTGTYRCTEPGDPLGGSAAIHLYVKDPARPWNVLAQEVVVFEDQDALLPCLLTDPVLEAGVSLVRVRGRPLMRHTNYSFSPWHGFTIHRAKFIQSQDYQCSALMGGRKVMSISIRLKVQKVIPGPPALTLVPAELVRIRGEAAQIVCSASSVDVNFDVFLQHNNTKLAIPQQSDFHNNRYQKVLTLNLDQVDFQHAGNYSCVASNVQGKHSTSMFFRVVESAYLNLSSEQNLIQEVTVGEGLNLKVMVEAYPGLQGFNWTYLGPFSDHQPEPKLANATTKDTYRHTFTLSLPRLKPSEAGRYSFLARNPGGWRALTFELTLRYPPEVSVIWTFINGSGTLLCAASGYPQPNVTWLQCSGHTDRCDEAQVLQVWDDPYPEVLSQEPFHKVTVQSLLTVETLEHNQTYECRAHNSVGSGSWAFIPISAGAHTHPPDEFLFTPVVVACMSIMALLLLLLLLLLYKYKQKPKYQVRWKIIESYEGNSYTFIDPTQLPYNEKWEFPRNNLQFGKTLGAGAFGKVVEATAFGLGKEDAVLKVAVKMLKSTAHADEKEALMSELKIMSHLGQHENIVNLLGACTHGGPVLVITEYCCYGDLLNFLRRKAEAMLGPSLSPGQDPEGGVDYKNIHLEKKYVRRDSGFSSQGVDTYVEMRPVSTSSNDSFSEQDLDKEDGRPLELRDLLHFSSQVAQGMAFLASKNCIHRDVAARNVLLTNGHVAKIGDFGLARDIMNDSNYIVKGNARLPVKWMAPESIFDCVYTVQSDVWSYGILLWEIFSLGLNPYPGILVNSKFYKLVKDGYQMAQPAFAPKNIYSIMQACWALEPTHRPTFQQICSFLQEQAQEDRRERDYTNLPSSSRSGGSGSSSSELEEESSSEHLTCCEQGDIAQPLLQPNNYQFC

[10] = molecular target: Tyrosine-protein kinase Fyn (Homo sapiens, UniProt P06241); assay: Inhibition of Fyn (unknown origin) after 60 mins by TR-FRET assay
Sequence of Tyrosine-protein kinase Fyn (P06241 whole entry): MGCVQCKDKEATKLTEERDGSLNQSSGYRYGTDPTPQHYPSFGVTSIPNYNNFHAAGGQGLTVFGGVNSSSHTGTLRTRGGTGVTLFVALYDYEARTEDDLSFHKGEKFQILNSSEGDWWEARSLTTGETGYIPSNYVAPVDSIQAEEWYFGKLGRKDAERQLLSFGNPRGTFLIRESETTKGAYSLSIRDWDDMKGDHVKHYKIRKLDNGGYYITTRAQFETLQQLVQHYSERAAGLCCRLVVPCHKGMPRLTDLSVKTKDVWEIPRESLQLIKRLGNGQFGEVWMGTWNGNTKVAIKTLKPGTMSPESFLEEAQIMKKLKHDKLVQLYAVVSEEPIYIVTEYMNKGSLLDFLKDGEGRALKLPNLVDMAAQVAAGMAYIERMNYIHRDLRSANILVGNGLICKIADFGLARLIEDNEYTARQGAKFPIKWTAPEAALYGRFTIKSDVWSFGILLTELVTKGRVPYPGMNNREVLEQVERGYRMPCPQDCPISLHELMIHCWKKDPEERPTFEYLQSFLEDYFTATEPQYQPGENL

[11] = molecular target: G protein-coupled receptor kinase 5 (Homo sapiens, UniProt P34947); assay: Inhibition of GRK5 (unknown origin) after 60 mins by TR-FRET assay
Sequence of G protein-coupled receptor kinase 5 (P34947 whole entry): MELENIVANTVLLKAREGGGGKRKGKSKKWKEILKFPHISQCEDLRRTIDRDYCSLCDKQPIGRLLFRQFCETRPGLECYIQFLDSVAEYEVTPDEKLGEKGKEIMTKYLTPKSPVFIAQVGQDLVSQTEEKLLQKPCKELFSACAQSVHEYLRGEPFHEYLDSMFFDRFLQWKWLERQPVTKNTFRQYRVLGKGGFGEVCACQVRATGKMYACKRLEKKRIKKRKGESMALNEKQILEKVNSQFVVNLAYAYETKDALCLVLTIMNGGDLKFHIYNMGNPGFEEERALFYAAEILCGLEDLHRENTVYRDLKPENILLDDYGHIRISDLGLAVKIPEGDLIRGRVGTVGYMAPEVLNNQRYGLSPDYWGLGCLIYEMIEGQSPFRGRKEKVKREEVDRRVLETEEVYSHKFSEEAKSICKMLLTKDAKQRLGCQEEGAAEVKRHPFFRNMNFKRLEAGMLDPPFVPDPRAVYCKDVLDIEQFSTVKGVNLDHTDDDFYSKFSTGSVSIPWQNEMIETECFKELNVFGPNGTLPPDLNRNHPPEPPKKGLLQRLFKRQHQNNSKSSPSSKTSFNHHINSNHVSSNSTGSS

[12] = molecular target: T1, Tyrosine-protein kinase JAK3 (Homo sapiens, UniProt P52333); assay: Inhibition of JAK3 (unknown origin) after 60 mins by TR-FRET assay
T1 sequence (P52333 whole entry): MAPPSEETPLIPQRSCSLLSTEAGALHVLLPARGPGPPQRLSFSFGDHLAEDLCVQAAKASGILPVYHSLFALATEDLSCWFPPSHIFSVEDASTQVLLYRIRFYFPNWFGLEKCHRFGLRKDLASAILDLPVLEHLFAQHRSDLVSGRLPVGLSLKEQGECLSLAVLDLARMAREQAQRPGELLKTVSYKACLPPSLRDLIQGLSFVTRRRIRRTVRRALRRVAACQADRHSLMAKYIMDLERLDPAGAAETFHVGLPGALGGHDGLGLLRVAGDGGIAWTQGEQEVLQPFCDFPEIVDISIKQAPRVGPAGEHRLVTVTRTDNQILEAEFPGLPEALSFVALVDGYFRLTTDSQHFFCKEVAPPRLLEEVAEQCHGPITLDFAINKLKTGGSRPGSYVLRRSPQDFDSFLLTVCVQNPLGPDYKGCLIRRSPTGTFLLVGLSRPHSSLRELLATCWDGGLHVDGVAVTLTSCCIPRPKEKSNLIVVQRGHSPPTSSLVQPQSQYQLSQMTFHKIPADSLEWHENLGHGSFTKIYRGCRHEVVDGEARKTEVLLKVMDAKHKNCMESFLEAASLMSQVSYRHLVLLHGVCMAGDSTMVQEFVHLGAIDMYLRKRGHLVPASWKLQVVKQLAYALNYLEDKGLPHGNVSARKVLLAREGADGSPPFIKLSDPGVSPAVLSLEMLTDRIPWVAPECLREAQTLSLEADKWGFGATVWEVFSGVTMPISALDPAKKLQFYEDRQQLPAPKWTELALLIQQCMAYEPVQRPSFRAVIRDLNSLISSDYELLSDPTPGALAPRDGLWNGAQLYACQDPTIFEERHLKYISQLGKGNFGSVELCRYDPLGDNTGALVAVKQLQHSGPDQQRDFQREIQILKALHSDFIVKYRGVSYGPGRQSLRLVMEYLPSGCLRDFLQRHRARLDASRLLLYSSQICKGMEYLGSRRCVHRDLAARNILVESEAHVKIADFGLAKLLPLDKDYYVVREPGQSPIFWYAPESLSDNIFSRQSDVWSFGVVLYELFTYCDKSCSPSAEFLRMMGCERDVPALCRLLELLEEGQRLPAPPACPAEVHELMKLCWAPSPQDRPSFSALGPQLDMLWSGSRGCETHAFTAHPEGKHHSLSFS

[13] = Inhibition of PKA (unknown origin) after 60 mins by TR-FRET assay
[14] = molecular target: T2, Serine/threonine-protein kinase TBK1 (Homo sapiens, UniProt Q9UHD2); assay: Inhibition of TBK1 (unknown origin) after 60 mins by TR-FRET assay
T2 sequence (Q9UHD2 whole entry): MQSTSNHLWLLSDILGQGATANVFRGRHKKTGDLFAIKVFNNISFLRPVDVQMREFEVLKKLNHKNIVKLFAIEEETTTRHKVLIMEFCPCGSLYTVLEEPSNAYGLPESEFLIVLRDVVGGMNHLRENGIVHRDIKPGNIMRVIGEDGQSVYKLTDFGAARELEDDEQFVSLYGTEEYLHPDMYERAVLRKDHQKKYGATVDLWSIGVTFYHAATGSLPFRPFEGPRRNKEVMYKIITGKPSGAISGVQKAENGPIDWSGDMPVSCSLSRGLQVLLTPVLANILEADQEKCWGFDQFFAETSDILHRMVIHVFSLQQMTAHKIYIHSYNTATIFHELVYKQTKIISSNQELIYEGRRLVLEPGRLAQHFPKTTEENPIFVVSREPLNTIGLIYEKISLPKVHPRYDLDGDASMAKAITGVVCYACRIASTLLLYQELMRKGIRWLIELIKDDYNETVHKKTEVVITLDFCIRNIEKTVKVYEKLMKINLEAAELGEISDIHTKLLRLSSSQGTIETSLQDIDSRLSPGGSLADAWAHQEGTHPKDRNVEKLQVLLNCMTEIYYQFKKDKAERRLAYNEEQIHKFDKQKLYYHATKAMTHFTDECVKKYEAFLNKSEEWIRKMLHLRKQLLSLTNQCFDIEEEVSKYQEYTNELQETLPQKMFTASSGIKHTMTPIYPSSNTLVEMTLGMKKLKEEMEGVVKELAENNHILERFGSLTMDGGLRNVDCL

[15] = molecular target: High affinity nerve growth factor receptor (Homo sapiens, UniProt P04629); assay: Inhibition of TRKA (unknown origin) after 60 mins by TR-FRET assay
[16] = molecular target: BDNF/NT-3 growth factors receptor (Homo sapiens, UniProt Q16620); assay: Inhibition of TrkB (unknown origin) after 60 mins by TR-FRET assay
Sequence of BDNF/NT-3 growth factors receptor (Q16620 whole entry): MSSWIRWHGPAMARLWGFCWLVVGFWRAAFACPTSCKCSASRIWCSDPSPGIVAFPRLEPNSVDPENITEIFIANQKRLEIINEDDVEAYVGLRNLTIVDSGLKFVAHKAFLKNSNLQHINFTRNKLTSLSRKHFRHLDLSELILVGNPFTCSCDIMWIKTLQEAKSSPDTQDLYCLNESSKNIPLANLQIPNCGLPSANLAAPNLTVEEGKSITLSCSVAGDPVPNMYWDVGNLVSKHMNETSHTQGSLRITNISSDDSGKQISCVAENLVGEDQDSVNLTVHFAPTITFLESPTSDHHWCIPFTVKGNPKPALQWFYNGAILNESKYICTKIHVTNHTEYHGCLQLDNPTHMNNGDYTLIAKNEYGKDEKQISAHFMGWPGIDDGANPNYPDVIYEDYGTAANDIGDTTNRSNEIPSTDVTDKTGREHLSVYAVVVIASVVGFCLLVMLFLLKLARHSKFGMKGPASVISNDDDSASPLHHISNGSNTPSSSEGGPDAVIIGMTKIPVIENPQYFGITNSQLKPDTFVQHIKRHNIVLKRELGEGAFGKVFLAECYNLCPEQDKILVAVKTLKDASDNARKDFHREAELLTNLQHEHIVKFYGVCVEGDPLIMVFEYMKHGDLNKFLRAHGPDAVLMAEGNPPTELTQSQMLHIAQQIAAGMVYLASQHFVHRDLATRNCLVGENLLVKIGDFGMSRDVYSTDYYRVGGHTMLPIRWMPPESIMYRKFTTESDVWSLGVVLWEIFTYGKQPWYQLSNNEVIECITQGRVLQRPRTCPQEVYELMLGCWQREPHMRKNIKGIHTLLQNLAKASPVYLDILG

[17] = molecular target: MAP kinase p38 (Homo sapiens, UniProt O15264+Q15759+Q16539+P53778); assay: Inhibition of p38 (unknown origin) after 60 mins by TR-FRET assay

| SMILES | IC50 [1] [µM] | IC50 [2] [µM] | IC50 [3] [µM] | IC50 [4] [µM] | IC50 [5] [µM] | IC50 [6] [µM] | IC50 [7] [µM] | IC50 [8] [µM] | IC50 [9] [µM] | IC50 [10] [µM] | IC50 [11] [µM] | IC50 [12] [µM] | IC50 [13] [µM] | IC50 [14] [µM] | IC50 [15] [µM] | IC50 [16] [µM] | IC50 [17] [µM] |
| --- | --- | --- | --- | --- | --- | --- | --- | --- | --- | --- | --- | --- | --- | --- | --- | --- | --- |
| FC(F)(F)CNc1nc(Nc2ccc(N3CCOCC3)c(Cl)c2)nc2ccoc12 | > 10 | > 10 | > 10 | > 10 | > 10 | > 10 | > 10 | > 10 | > 10 | 1.51 | > 10 | > 10 | > 10 | > 10 | > 10 | 8.34 |  |
| FC(F)(F)CNc1nc(Nc2ccc3cn[nH]c3c2)nc2ccoc12 | > 10 | > 10 | > 10 | > 10 | > 10 |  | 6.44 | > 10 | > 10 |  | 8.12 | > 10 | > 10 | > 10 | > 10 |  | > 10 |
| Cc1n[nH]c2cc(Nc3nc(NC4CC4)c4occc4n3)ccc12 | > 10 | > 10 | > 10 | > 10 | > 10 | 7.54 | > 10 | > 10 | > 10 | 5.96 | 9.96 | > 10 | > 10 | > 10 | > 10 | > 10 | > 10 |
| CC1(C)OCC(=O)Nc2cc(Nc3nc(NCC(F)(F)F)c4occc4n3)ccc21 | > 10 | > 10 | 5.02 | > 10 | > 10 | > 10 | > 10 | > 10 | > 10 | 0.201 | > 10 | > 10 | > 10 | 7.61 | 5.4 | 0.379 | > 10 |
